Activity calls are given as the source filed them. No cut-off for these calls is given here.
Legend:
[1] = target: T1, Protein cereblon/Mitogen-activated protein kinase kinase kinase kinase 1 (Homo sapiens, UniProt Q92918+Q96SW2); test: PROTAC activity at CRBN/HPK1 in human Jurkat cells assessed as degradation of HPK1 protein incubated for 24 hrs by Western blotting analysis; assay type: cell-based
Target sequence in this assay (Q92918 whole entry): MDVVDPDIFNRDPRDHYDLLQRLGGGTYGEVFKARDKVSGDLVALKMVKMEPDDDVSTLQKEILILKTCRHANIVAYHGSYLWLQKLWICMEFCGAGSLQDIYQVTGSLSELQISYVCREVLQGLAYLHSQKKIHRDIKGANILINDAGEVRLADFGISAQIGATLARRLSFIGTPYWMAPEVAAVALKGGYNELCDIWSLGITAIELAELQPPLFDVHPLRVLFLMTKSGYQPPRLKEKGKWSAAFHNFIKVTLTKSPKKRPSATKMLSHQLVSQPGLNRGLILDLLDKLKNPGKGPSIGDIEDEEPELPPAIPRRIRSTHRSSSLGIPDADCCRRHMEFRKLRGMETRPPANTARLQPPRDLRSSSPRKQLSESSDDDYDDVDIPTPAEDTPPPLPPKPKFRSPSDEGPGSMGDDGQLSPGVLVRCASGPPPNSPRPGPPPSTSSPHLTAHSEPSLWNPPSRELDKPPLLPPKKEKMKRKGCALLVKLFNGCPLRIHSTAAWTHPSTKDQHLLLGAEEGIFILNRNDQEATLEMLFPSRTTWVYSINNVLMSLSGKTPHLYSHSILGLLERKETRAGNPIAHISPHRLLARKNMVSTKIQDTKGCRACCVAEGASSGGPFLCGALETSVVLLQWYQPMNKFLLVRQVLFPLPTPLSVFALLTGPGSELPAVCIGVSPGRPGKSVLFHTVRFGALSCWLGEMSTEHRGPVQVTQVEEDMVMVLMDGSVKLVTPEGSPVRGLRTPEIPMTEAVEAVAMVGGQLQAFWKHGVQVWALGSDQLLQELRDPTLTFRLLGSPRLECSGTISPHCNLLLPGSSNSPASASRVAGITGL
Target sequence in this assay (Q96SW2 whole entry): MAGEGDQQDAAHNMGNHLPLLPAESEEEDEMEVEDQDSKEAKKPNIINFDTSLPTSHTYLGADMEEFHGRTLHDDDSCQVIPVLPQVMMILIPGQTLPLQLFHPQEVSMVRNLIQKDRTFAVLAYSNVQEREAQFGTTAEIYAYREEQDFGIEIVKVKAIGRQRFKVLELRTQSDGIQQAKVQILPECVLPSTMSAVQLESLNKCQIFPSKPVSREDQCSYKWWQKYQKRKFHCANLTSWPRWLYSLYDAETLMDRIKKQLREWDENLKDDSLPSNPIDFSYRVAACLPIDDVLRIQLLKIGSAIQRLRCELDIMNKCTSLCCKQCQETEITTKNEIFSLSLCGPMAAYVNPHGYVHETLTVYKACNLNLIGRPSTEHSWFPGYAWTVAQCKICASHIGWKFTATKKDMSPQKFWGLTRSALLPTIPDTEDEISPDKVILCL

[2] = Tmax in Sprague-Dawley rat at 10 mg/kg,po measured upto 24 hrs by LC-MS analysis; assay type: ADME, organism-based; details: in vivo
[3] = Cmax in Sprague-Dawley rat at 10 mg/kg,po measured upto 24 hrs by LC-MS analysis; assay type: ADME, organism-based; details: in vivo
[4] = AUC (0 to t) in Sprague-Dawley rat at 10 mg/kg,po measured upto 24 hrs by LC-MS analysis; assay type: ADME, organism-based; details: in vivo
[5] = MRT in Sprague-Dawley rat at 10 mg/kg,po measured upto 24 hrs by LC-MS analysis; assay type: ADME, organism-based; details: in vivo
[6] = Stability in human liver microsomes assessed as parent compound remaining measured after 15 mins; assay type: ADME, Microsome; details: read-out: Stability
[7] = Stability in human liver microsomes assessed as parent compound remaining measured after 30 mins; assay type: ADME, Microsome; details: read-out: Stability
[8] = Stability in mouse liver microsomes assessed as parent compound remaining measured after 5 mins; assay type: ADME, Microsome; details: read-out: Stability
[9] = Stability in mouse liver microsomes assessed as parent compound remaining measured after 30 mins; assay type: ADME, Microsome; details: read-out: Stability
[10] = Metabolic stability in human liver microsomes assessed as half life; assay type: ADME, Microsome
[11] = Metabolic stability in mouse liver microsomes assessed as half life; assay type: ADME, Microsome
[12] = Metabolic stability in mouse liver microsomes assessed as intrinsic clearance; assay type: ADME, Microsome; details: read-out: CLH
[13] = Metabolic stability in mouse liver microsomes assessed as microsomal intrinsic clearance; assay type: ADME, Microsome; details: read-out: CLH
[14] = Metabolic stability in mouse liver microsomes assessed as hepatic extraction ratio; assay type: ADME, Microsome; details: read-out: ERH
[15] = target: T1, Protein cereblon/Mitogen-activated protein kinase kinase kinase kinase 1; test: PROTAC activity at CRBN/HPK1 in human Jurkat cells assessed as maximal degradation of HPK1 protein at 1 uM incubated for 24 hrs by Western blotting analysis relative to control; assay type: cell-based
Target sequence in this assay (Q92918 whole entry, looked up): as the sequence (Q92918 whole entry) above
Target sequence in this assay (Q96SW2 whole entry, looked up): as the sequence (Q96SW2 whole entry) above

[16] = target: T1, Protein cereblon/Mitogen-activated protein kinase kinase kinase kinase 1; test: PROTAC activity at CRBN/HPK1 in human Jurkat cells assessed as degradation of HPK1 protein at 1 uM preincubated with 4-(2-(2,5-Dimethyl-1,2,3,4-tetrahydroisoquinolin-7-y1)-5H-pyrrolo[2,3-bipyrazin-7-y1)-N,N,2-trimethylbenzamide followed by compound addition incubated for 24 hrs by Western blotting analysis; assay type: cell-based
Target sequence in this assay (Q92918 whole entry, looked up): as the sequence (Q92918 whole entry) above
Target sequence in this assay (Q96SW2 whole entry, looked up): as the sequence (Q96SW2 whole entry) above

[17] = target: T1, Protein cereblon/Mitogen-activated protein kinase kinase kinase kinase 1; test: PROTAC activity at CRBN/HPK1 in human Jurkat cells assessed as degradation of HPK1 protein at 1 uM preincubated with cycloheximide followed by compound addition incubated for 4 hrs by Western blotting analysis; assay type: cell-based
Target sequence in this assay (Q92918 whole entry, looked up): as the sequence (Q92918 whole entry) above
Target sequence in this assay (Q96SW2 whole entry, looked up): as the sequence (Q96SW2 whole entry) above

Jurkat [18] = test: Immunostimulatory activity in anti-CD3/CD28 induced human Jurkat cells assessed as increase in IL-2 release incubated for 24 hrs by ELISA; assay type: functional, cell-based
Jurkat [19] = test: Immunostimulatory activity in anti-CD3/CD28 induced human Jurkat cells assessed as increase in IFN-gamma release incubated for 24 hrs by ELISA; assay type: functional, cell-based
Jurkat [20] = test: Immunostimulatory activity in anti-CD3/CD28 induced human Jurkat cells assessed as increase in IL-2 release at 10 to 10000 nM incubated for 24 hrs in presence of PGE2 and NECA by ELISA; assay type: functional, cell-based; details: dose 10-10000 nM
Jurkat [21] = test: Immunostimulatory activity in anti-CD3/CD28 induced human Jurkat cells assessed as increase in IFN-gamma at 10 to 10000 nM incubated for 24 hrs in presence of PGE2 and NECA by ELISA; assay type: functional, cell-based; details: dose 10-10000 nM
[22] = target: Mitogen-activated protein kinase kinase kinase kinase 1 (Homo sapiens, UniProt Q92918); test: Inhibition of HPK1 (unknown origin)
Jurkat [23] = test: Immunostimulatory activity in anti-CD3/CD28 induced human Jurkat cells assessed as downregulation of SLP76 expression by Western blotting analysis; assay type: functional, cell-based
Jurkat [24] = test: Immunostimulatory activity in anti-CD3/CD28 induced human Jurkat cells assessed as downregulation of SLP76 phosphorylation by Western blotting analysis; assay type: functional, cell-based
Jurkat [25] = test: Immunostimulatory activity in anti-CD3/CD28 induced human Jurkat cells assessed as downregulation of NF-kappaB expression by Western blotting analysis; assay type: functional, cell-based
Jurkat [26] = test: Immunostimulatory activity in anti-CD3/CD28 induced human Jurkat cells assessed as upregulation of JNK expression by Western blotting analysis; assay type: functional, cell-based
Jurkat [27] = test: Immunostimulatory activity in anti-CD3/CD28 induced human Jurkat cells assessed as upregulation of ERK phosphorylation by Western blotting analysis; assay type: functional, cell-based
Jurkat [28] = test: Immunostimulatory activity in anti-CD3/CD28 induced human Jurkat cells assessed as upregulation of JNK phosphorylation by Western blotting analysis; assay type: functional, cell-based
[29] = Tmax in ICR mouse at 1 mg/kg,iv measured upto 24 hrs by LC-MS analysis; assay type: ADME, organism-based; details: in vivo
[30] = Cmax in ICR mouse at 1 mg/kg,iv measured upto 24 hrs by LC-MS analysis; assay type: ADME, organism-based; details: in vivo
[31] = AUC (0 to t) in ICR mouse at 1 mg/kg,iv measured upto 24 hrs by LC-MS analysis; assay type: ADME, organism-based; details: in vivo
CT26 = test: Antitumor activity against mouse CT26 cells implanted BALB/c mouse model assessed as tumor growth inhibition at 25 mg/kg,po administrated once daily for 15 days in presence of anti-PD-L1 antibody relative to control; assay type: functional; details: CT26, 360 h, time 15 day, read-out: TGI
[32] = target: T1, Protein cereblon/Mitogen-activated protein kinase kinase kinase kinase 1; test: PROTAC activity at CRBN/HPK1 in human Jurkat cells assessed as downregulation of KHS expression by Western blotting analysis; assay type: cell-based
Target sequence in this assay (Q92918 whole entry, looked up): as the sequence (Q92918 whole entry) above
Target sequence in this assay (Q96SW2 whole entry, looked up): as the sequence (Q96SW2 whole entry) above

[33] = target: T1, Protein cereblon/Mitogen-activated protein kinase kinase kinase kinase 1; test: PROTAC activity at CRBN/HPK1 in human Jurkat cells assessed as upregulation of GCK expression by Western blotting analysis; assay type: cell-based
Target sequence in this assay (Q92918 whole entry, looked up): as the sequence (Q92918 whole entry) above
Target sequence in this assay (Q96SW2 whole entry, looked up): as the sequence (Q96SW2 whole entry) above

Mitogen-activated protein kinase kinase kinase kinase 1, sequence (Q92918 whole entry): as the sequence (Q92918 whole entry) above

Cc1cc(-c2c[nH]c3ncc(-c4ccc(C5CCN(C6CN(c7ccc8c(c7)C(=O)N(C7CCC(=O)NC7=O)C8=O)C6)CC5)cc4)nc23)ccc1C(=O)N(C)C (centres undefined)
DC50 [1]: 4.5 nM | Tmax [2]: 1 h | Cmax [3]: 2090 ng/mL | AUC(0-t) at 24 h [4]: 16400 ng·h/mL | MRT [5]: 9.62 h | remaining at 0.25 h [6]: 101% | remaining at 0.5 h [7]: 98.3% | remaining at 5 min [8]: 100% | remaining at 0.5 h [9]: 70.3% | half-life [10]: 16.5 h | half-life [11]: 1.25 h | microsomal CLint [12]: 18.4 µL/min/mg | CLint scaled [13]: 16.6 mL/min/kg | hepatic extraction ratio [14]: 0.444 | Activity [15]: 100% | Activity [16]: Active | Activity [17]: Active | Activity (Jurkat [18]): Dose-Dependent Effect | Activity (Jurkat [19]): Dose-Dependent Effect | Activity (Jurkat [20]): inactive | Activity (Jurkat [21]): inactive | IC50 [22]: 30.9 nM | Activity (Jurkat [23]): Active | Activity (Jurkat [24]): Active | Activity (Jurkat [25]): Active | Activity (Jurkat [26]): Active | Activity (Jurkat [27]): Active | Activity (Jurkat [28]): Active | Tmax [29]: 4.8 min | Cmax [30]: 3000 ng/mL | AUC(0-t) at 24 h [31]: 16800 ng·h/mL | inhibition in vivo at 25 mg/kg (CT26): 65.6% | Activity [32]: Active | Activity [33]: inactive

— ChEMBL document CHEMBL5576124, “Discovery of an Exceptionally Orally Bioavailable and Potent HPK1 PROTAC with Enhancement of Antitumor Efficacy of Anti-PD-L1 Therapy” (J Med Chem, 2024)
